Results from US20040063156A1, “Materials and methods relating to the diagnosis and treatment of diabetes and obesity” (Rodaris Pharmaceuticals Limited, priority 1996, published 2004).

Assay: Urinary excretion of IPG P-type in diabetic patients treated with metformin
Assay type: in vivo, human
Details: overweight/obese NIDDM patients on metformin, urine, FIGS. 5A,B
Excerpt: A cross-sectional study was undertaken with random spot samples collected at outpatients clinics. The patients included NIDDM subjects controlled by diet alone, by sulphonylureas, by metformin, by insulin or a combination of any of these treatments. Only a limited number of IDDM subjects were available. In the present survey, male subjects were used, this avoided complications arising from varying hormone profiles in women of different ages, in particular with or without HRT or contraceptive pills. […] In addition to the measurement of IPG P-type and IPG A-type in urine the following clinical data was made available: […]

CN(C)C(=N)N=C(N)N [metformin]
effect on pattern of excretion of IPG P-type: fails to restore the pattern of excretion of IPG P-type to normal
